In this experiment the target is Histone deacetylase 3 (Homo sapiens, UniProt O15379). Nature of the experiment: Allosteric inhibition of C-terminal His-tagged recombinant human HDAC3 expressed in Sf9 cells pre-incubated for 2 hrs before acetylated lysine-aminomethyl coumarin-BOC addition and measured after 2 hrs by fluorescence based assay.

pIC50: −log10 of the molar value. Where only a bound is given, the exact number is not on record here.

Among the data in BindingDB's records for doi:10.1021/acs.jmedchem.6b01385 (Medical University of South Carolina, 2016) are IC50 values, retold here.

As usually defined, the pIC50 is −log10 of the IC50, conventionally taken in molar units.

Histone deacetylase 3, sequence (O15379 whole entry): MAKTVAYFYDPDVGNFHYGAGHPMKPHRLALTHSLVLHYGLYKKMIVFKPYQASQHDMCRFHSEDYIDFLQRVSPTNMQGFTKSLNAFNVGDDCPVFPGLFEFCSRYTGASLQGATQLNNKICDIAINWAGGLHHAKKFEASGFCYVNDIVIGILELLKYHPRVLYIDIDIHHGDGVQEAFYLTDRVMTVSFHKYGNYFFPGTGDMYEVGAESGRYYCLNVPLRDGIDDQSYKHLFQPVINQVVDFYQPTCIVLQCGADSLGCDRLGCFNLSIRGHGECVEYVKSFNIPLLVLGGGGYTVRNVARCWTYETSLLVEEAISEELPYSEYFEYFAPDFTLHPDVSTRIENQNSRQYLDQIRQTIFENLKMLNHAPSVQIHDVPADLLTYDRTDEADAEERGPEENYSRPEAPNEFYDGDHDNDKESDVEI

Consider `CCCCCCCCCCNNC(=O)c1ccc(CNC(=O)c2ccccc2)cc1` [N-(4-(2-decylhydrazine-1-carbonyl)benzyl)benzamide], for which the pIC50 was less than 5.00.
